{"source": "patent US12599597B2", "about": "“Substituted N-benzhydrylacetamide inhibitors of jumanji domain histone demethylases for the treatment of cancer” (University of Kentucky Research Foundation, priority 2020, dated 2026)", "key": {"JMJD2A (KDM4A)": {"biological_target": "T1, JMJD2A (KDM4A) (Homo sapiens, UniProt O75164)", "T1 sequence (O75164 1-1064)": "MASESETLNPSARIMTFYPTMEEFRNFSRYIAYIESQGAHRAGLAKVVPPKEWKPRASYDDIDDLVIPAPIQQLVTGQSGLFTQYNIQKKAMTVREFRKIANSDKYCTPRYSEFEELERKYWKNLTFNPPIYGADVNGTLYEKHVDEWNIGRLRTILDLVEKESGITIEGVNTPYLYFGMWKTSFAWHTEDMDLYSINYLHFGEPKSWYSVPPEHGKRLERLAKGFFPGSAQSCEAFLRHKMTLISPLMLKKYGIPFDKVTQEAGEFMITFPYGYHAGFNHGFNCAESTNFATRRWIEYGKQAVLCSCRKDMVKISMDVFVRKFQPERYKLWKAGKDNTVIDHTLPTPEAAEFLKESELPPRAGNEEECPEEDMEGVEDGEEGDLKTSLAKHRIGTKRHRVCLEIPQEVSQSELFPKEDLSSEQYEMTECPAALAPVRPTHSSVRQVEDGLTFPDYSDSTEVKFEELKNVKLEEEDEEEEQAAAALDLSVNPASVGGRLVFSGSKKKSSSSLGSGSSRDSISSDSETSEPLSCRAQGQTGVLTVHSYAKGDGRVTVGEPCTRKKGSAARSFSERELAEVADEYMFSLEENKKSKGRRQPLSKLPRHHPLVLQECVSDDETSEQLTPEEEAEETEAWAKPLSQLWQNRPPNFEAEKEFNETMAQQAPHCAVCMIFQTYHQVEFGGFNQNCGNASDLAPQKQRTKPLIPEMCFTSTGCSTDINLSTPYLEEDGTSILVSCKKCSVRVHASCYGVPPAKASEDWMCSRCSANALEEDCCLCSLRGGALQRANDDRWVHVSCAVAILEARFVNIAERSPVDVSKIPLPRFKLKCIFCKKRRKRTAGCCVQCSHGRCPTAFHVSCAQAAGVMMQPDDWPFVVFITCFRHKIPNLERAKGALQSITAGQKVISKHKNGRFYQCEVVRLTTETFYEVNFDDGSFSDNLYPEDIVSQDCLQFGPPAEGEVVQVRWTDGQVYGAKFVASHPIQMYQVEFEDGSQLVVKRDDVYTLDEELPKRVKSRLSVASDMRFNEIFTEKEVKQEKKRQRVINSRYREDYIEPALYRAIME", "assay": "Histone demethylase assay, purified enzyme panel", "format": "biochemical", "settings": "58B1, 10 μM", "from_the_text": "(§1) Histone Demethylase Assay\n(§2) To further examine the effects of 58B1 on histone demethylase, we screened a panel of purified histone demethylases was screened."}, "Jarid1B (KDM5B)": {"biological_target": "Jarid1B (KDM5B) (Homo sapiens, UniProt Q9UGL1)", "sequence (Q9UGL1 whole entry)": "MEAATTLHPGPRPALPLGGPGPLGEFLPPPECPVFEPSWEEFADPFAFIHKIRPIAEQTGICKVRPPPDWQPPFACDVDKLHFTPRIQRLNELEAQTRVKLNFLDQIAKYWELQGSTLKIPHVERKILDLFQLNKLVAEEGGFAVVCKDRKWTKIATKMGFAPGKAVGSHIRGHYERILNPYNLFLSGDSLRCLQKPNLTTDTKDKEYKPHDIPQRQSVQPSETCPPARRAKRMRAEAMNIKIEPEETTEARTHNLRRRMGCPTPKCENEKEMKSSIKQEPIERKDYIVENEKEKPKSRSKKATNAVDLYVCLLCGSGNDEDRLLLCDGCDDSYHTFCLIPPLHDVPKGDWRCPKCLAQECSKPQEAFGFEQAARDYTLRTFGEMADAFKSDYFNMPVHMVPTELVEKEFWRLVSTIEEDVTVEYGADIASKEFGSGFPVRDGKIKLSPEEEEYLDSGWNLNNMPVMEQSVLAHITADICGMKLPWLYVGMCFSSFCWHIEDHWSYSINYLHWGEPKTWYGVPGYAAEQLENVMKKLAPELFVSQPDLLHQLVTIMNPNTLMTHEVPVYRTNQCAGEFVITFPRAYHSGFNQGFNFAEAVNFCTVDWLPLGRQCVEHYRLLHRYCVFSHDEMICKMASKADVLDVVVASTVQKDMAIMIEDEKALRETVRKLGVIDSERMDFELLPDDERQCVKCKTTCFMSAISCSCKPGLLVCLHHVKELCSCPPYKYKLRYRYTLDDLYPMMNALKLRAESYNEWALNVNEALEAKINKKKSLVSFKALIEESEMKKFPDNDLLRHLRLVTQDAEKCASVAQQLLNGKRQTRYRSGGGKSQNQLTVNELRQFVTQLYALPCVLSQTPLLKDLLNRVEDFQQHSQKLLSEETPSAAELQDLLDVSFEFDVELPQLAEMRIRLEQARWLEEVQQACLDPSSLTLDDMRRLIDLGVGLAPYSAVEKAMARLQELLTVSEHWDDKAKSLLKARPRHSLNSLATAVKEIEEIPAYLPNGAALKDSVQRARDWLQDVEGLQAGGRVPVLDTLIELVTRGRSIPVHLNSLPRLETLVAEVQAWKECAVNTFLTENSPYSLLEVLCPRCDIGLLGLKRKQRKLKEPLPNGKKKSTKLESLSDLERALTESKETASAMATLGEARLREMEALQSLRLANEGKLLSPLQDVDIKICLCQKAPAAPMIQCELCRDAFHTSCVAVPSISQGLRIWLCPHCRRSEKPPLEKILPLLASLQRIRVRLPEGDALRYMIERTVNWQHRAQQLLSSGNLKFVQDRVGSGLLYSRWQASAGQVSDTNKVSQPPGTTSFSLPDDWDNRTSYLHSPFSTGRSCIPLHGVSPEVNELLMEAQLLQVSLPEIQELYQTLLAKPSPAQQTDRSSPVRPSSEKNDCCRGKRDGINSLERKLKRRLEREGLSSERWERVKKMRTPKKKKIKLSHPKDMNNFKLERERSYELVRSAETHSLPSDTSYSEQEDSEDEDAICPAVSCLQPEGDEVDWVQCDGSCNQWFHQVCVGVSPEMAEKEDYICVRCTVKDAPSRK", "assay": "Histone demethylase assay, purified enzyme panel", "format": "biochemical", "settings": "58B1, 10 μM", "from_the_text": "as §1, §2"}, "FBXL10 (KDM2B)": {"biological_target": "T2, FBXL10 (KDM2B) (Homo sapiens, UniProt Q8NHM5)", "T2 sequence (Q8NHM5 1-1336)": "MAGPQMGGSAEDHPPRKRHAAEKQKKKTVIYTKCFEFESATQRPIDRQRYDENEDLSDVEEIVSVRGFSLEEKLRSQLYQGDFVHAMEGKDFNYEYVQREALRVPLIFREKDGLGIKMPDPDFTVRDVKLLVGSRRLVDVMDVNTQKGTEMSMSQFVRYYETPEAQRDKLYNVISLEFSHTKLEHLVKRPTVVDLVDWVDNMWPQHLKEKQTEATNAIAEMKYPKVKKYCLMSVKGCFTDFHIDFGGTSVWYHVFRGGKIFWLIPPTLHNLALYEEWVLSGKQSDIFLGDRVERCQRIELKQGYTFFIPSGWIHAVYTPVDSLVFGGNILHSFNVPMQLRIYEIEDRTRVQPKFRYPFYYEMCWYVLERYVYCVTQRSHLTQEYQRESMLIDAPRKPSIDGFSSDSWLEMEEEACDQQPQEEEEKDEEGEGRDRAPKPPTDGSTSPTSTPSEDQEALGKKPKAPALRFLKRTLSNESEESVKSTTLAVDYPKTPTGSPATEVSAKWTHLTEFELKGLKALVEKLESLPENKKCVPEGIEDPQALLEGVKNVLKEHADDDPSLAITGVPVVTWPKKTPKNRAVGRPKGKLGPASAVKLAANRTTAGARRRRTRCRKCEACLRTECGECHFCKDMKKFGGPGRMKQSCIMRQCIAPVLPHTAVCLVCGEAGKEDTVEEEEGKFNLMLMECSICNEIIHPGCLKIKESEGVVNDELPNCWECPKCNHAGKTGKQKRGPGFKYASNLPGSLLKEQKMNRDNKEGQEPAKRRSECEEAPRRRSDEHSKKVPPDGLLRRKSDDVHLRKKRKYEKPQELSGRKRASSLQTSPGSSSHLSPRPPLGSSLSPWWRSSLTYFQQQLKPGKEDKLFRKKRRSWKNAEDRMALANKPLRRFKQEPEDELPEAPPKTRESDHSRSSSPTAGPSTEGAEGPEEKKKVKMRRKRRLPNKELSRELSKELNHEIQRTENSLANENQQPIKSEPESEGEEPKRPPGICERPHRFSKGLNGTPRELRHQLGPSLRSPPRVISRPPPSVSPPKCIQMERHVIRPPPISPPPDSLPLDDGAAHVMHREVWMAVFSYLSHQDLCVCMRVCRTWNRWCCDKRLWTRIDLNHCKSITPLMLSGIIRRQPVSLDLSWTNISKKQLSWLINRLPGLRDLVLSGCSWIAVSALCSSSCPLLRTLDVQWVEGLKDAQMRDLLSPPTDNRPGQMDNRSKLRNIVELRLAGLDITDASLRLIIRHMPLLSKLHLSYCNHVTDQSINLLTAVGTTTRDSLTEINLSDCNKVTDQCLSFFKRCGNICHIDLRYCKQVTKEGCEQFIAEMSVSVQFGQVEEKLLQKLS", "assay": "Histone demethylase assay, purified enzyme panel", "format": "biochemical", "settings": "58B1, 10 μM", "from_the_text": "as §1, §2"}, "UTX (KDM6A)": {"biological_target": "UTX (KDM6A) (Homo sapiens, UniProt O15550)", "sequence (O15550 whole entry)": "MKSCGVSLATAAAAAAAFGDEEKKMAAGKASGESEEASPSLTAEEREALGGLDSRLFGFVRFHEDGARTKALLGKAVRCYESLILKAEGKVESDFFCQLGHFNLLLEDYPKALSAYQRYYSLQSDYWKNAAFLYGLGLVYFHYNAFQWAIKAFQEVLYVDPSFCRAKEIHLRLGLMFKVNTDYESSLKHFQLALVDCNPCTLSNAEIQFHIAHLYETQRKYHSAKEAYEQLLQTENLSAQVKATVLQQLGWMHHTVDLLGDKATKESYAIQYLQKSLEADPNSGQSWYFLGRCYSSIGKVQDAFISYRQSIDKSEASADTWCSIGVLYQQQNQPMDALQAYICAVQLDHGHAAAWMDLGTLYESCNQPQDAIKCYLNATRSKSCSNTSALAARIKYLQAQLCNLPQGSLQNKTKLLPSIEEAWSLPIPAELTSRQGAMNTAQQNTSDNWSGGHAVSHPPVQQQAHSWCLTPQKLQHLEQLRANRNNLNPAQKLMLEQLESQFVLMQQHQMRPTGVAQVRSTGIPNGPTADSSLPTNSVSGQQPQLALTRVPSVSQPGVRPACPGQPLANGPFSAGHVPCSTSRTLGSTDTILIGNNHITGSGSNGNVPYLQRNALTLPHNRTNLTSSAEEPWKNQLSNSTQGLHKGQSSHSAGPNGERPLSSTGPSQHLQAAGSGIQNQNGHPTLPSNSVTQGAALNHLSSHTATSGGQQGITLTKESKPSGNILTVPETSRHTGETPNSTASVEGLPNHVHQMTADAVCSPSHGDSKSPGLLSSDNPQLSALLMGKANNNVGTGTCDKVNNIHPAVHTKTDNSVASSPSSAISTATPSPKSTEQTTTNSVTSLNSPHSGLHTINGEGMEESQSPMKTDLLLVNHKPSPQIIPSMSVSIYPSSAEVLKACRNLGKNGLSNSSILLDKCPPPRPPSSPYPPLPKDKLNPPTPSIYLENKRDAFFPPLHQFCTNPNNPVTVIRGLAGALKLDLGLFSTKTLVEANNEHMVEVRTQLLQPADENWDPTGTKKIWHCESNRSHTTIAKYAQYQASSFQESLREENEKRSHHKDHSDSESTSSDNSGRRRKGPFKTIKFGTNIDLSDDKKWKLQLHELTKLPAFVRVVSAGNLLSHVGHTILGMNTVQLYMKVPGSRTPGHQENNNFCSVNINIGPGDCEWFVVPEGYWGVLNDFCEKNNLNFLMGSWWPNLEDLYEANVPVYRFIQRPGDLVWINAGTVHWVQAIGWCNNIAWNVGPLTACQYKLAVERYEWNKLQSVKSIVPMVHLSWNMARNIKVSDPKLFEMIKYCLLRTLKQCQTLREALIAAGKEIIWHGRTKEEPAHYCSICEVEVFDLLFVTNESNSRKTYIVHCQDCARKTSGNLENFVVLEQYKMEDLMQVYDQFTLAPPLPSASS", "assay": "Histone demethylase assay, purified enzyme panel", "format": "biochemical", "settings": "58B1, 10 μM", "from_the_text": "as §1, §2"}, "LSD1 (KDM1A)": {"biological_target": "LSD1 (KDM1A) (Homo sapiens, UniProt O60341)", "assay": "Histone demethylase assay, purified enzyme panel", "format": "biochemical", "settings": "58B1, 10 μM", "from_the_text": "as §1, §2"}, "[1]": {"system": "histone methylation in CRC cells", "assay": "Histone methylation in CRC cells", "format": "cell-based", "from_the_text": "CBA-1 increased repressive histone methylation on Wnt target genes. The present inventors reported that mutations in APC or β-catenin N-terminal phosphorylation sites prevented β-catenin degradation in CRC cells. […] Because CBA-1 inhibited Wnt signaling in CRC cells, it was reasonable to assume that it inhibited Wnt signaling downstream of β-catenin, most likely by blocking β-catenin activity in the nucleus. Consequently, the present inventors hypothesized that CBA-1 inhibited Wnt signaling epigenetically by altering chromatin remodeling, and they probed the effects of CBA-1 on histone methylation in CRC cells."}}}
{"smiles": "CCCC(=O)NC(c1ccc(N(CC)CC)cc1)c1cc(Cl)c2cccnc2c1O", "note": "(centres unmarked) [58B1]", "values": [{"measurement": "inhibition at 10 µM", "setting": "JMJD2A (KDM4A)", "result": 64, "unit": "%"}, {"measurement": "inhibition at 10 µM", "setting": "Jarid1B (KDM5B)", "result": 95, "unit": "%"}, {"measurement": "inhibition at 10 µM", "setting": "FBXL10 (KDM2B)", "result": 30, "unit": "%"}, {"measurement": "inhibition at 10 µM", "setting": "UTX (KDM6A)", "result": 100, "unit": "%"}, {"measurement": "inhibition at 10 µM", "setting": "LSD1 (KDM1A)", "result": 32, "unit": "%"}, {"measurement": "H3K4Me^2", "setting": "[1]", "result": "no effect"}, {"measurement": "levels of H3K9Me^2", "setting": "[1]", "result": "significantly increased"}, {"measurement": "levels of H3K9Me^3", "setting": "[1]", "result": "significantly increased"}]}
